From ChEMBL document CHEMBL3272075, “Direct measurement of octanol-water partition coefficients by high-pressure liquid chromatography” (J Med Chem, 1976) come the findings set out here.

Data set [1] can be described thus: physchem. The note with it: octanol/water.
Description: Partition coefficient, log P of the compound by HPLC analysis
Data set [2] can be described thus: physchem. Particulars: octanol/water. The source holds these as a separate data set.
Description: Partition coefficient, log P of the compound by shake-flask technique

The structures appear in SMILES notation.

Usually logP stands for a log measure of how a compound divides between an organic and an aqueous phase. Read a low logP as a more hydrophilic compound.

Molecule `Cc1ccnc2ccccc12` had a logP in “physchem [1]” of 2.52.

For `COc1ccccc1` [ANISOLE], the logP in “physchem [1]” was 2.1.

On to `Nc1ccncc1` [DALFAMPRIDINE], for which the values for the logP in “physchem [2]” and in “physchem [1]” were 0.28 and 0.26, respectively.

Regarding `c1ccc2nc3ccccc3nc2c1` [PHENAZINE], the logP was determined as 2.85 in “physchem [2]” and 2.81 in “physchem [1]”.

Consider `CC(=O)Nc1ccccc1` [ACETANILIDE], for which the results for the logP in “physchem [2]” and in the data set “physchem [1]” were 1.16 and 1.14, respectively.

As to `c1ccc2cnccc2c1` [ISOQUINOLINE], the logP in “physchem [2]” stood at 2.08; in “physchem [1]”, 2.09.

Take `c1ccc2nc3ccccc3cc2c1` [ACRIDINE]: the logP in the data set “physchem [2]” came to 3.4; in “physchem [1]”, 3.39.

In turn, `Cc1cccnc1` [3-METHYLPYRIDINE] came in with a lipophilicity (logP) in “physchem [1]” of 1.2.

As to `Brc1cnc2ccccc2c1`, in “physchem [1]”, the logP was found to be 3.03.

For `c1ccc2ncccc2c1` [QUINOLINE], the values for the logP in the data set “physchem [2]” and in “physchem [1]” were 2.03 and 2.04, respectively.

Take `CC(=O)Nc1ccc(OCC(O)CNC(C)C)cc1` (stereo not drawn) [PRACTOLOL]: the logP amounted to 0.79 in “physchem [2]” and 0.78 in the data set “physchem [1]”.
